# Laboratory results reported in ChEMBL document CHEMBL1201862, “PubChem BioAssay data set” (2004).
# Activity calls are given as the source filed them.
# Key:
# [1] = molecular target: Nuclear receptor subfamily 5 group A member 2 (Homo sapiens, UniProt O00482); type: functional, cell-based;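 further: HEK293T cells transfected with LRH-1 and a StAR promoter luciferase reporter; potency for inhibitors that lower LRH-1 driven reporter light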
# Steroidogenic factor 1 = Steroidogenic factor 1 (Homo sapiens, UniProt Q13285); test: Counterscreen for inverse agonists of the liver receptor homolog-1 (LRH-1; NR5A2): Luminescence-based cell-based high throughput dose response assay to identify inverse agonists of the Steroidogenic Factor 1 Nuclear Receptor (SF1; NR5A1).; type: functional
# [2] = nonselective StAR promoter luciferase inhibitors – cell-based, luminescence, luciferase reporter, counter-screen for LRH-1 inverse agonist project, dose response (AID 651969); type: functional
# Estrogen receptor beta = Estrogen receptor beta (Homo sapiens, UniProt Q92731); test: blockers of SRC-3 recruitment to ERβ – biochemical, ELISA, streptavidin-HRP readout, orthogonal assay, confirmation (AID 1060)
# Insulin-degrading enzyme [3] = molecular target: T1, Insulin-degrading enzyme (Homo sapiens, UniProt P14735); test: recombinant IDE activation, cell-free – biochemical, fluorescence polarization, counter-screen for IDE activator project, dose response (AID 588681)
# T1 sequence (P14735 whole entry): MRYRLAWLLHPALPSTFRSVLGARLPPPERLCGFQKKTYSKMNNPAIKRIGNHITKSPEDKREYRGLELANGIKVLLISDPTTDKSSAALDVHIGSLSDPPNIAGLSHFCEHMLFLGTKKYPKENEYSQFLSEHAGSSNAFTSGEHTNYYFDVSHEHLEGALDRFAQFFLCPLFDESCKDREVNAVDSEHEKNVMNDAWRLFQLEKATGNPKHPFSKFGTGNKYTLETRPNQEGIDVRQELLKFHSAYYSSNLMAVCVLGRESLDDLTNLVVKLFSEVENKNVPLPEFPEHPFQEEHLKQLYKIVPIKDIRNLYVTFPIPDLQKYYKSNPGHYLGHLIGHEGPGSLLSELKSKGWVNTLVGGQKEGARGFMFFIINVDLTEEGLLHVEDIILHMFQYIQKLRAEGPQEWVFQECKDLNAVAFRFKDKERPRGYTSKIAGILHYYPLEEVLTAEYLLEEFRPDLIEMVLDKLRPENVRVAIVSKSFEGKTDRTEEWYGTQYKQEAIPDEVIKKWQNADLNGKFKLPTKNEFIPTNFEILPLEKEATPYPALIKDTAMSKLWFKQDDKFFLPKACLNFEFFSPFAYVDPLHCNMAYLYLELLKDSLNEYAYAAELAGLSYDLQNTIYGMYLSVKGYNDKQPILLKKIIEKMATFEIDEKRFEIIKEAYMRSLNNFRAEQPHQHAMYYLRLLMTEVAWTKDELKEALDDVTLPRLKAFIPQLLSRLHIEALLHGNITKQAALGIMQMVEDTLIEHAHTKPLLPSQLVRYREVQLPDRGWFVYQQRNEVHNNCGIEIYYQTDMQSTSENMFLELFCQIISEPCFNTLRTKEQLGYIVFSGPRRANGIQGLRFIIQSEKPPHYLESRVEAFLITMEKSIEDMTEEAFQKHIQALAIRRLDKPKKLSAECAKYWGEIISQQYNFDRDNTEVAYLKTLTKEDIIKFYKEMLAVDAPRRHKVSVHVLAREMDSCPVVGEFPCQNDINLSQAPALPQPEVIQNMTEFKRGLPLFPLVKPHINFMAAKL
# Insulin-degrading enzyme [4] = molecular target: T1, Insulin-degrading enzyme; test: cellular IDE activation of Abeta substrate cleavage – fluorescence polarization, HEK cells, dose response (AID 588439); type: functional, cell-based
# HEK293 [5] = test: membrane integrity loss in HEK cells – cell-based, fluorescence, cytotoxicity control for IDE activator project, dose response (AID 588440); type: functional; settings: Homo sapiens;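 further: cytotoxicity by LDH release measuring loss of membrane integrity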
# HEK293 [6] = test: optical interference in Abeta FP readout, dose response, artefact control for IDE activator project, biochemical, fluorescence polarization (AID 588442); type: functional, cell-based; settings: Homo sapiens
# Protein Tat = molecular target: T2, Protein Tat (Human immunodeficiency virus type 1 group M subtype B (isolate HXB2)(HIV-1), UniProt P04608); type: functional;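 further: tat binding to TAR RNA read out by fluorescence polarization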
# T2 sequence (P04608 whole entry): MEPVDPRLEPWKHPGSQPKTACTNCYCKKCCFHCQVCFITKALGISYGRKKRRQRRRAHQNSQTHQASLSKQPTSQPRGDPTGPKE
# [7] = viability loss in THP-1 monocytes – THP-1 cells, cytotoxicity control for Vif-APOBEC3G degradation inhibitor project, dose response (AID 1117359); type: functional; settings: THP-1
# [8] = reduction of Shn3 3'UTR-driven luciferase in osteoblasts – cell-based, Clone20 osteoblasts, firefly luciferase, cherry-picked, dose response (AID 624132); type: functional;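 further: firefly luciferase luminescence from reporter carrying the Shn3 3'UTR in osteoblasts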
# [9] = loss of viability in HepG2 cells – cell-based, CellTiter-Glo, cherry-picked, cytotoxicity control for Shn3 inhibitor project, dose response (AID 624134); type: functional
# [10] = non-specific 3'UTR reporter inhibition in Clone20-Shn3RL – cell-based, Renilla luciferase, cherry-picked, counter-screen for Shn3 inhibitor project, dose response (AID 624133); type: functional
# [11] = molecular target: Low molecular weight phosphotyrosine protein phosphatase (Homo sapiens, UniProt P24666); type: functional; settings: read-out: IC50_Mean;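 further: Dose-response confirmation assay measuring inhibition of LMPTP enzyme activity by fluorescence intensity read-out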
# [12] = molecular target: T3, Sentrin-specific protease 8 (Homo sapiens, UniProt Q96LD8); test: inhibition of human SENP8 cleavage activity – biochemical, luminescence, SAR follow-up (AID 504501); type: functional
# T3 sequence (Q96LD8 whole entry): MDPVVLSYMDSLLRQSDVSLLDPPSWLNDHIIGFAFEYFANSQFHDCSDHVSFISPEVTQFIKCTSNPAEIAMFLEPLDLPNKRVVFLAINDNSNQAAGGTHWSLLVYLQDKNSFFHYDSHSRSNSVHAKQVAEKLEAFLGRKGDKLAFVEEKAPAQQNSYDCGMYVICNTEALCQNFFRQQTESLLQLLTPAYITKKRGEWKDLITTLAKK
# Caspase-3 [13] = molecular target: T4, Caspase-3 (Homo sapiens, UniProt P42574); test: SAR Analysis of small molecule inhibitors of Sentrin-specific proteases (SENPs) using a Caspase-3 Selectivity assay. [Related pubchem assays (depositor defined):AID2540, AID2599, AID434973, AID489001]; type: functional
# T4 sequence (P42574 whole entry): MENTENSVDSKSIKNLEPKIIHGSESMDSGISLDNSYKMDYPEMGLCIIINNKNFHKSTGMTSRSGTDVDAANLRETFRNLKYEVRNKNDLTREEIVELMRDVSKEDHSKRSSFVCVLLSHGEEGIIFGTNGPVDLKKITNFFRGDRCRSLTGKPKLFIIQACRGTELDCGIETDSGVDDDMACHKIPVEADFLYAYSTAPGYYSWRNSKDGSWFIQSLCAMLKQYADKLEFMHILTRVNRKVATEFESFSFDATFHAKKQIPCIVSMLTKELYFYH
# [14] = molecular target: T5, Sentrin-specific protease 6 (Homo sapiens, UniProt Q9GZR1); test: SAR Analysis of small molecule inhibitors of Sentrin-specific protease 6 (SENP6) using a Luminescent assay. [Related pubchem assays (depositor defined):AID2582, AID2599]; type: functional
# T5 sequence (Q9GZR1 whole entry): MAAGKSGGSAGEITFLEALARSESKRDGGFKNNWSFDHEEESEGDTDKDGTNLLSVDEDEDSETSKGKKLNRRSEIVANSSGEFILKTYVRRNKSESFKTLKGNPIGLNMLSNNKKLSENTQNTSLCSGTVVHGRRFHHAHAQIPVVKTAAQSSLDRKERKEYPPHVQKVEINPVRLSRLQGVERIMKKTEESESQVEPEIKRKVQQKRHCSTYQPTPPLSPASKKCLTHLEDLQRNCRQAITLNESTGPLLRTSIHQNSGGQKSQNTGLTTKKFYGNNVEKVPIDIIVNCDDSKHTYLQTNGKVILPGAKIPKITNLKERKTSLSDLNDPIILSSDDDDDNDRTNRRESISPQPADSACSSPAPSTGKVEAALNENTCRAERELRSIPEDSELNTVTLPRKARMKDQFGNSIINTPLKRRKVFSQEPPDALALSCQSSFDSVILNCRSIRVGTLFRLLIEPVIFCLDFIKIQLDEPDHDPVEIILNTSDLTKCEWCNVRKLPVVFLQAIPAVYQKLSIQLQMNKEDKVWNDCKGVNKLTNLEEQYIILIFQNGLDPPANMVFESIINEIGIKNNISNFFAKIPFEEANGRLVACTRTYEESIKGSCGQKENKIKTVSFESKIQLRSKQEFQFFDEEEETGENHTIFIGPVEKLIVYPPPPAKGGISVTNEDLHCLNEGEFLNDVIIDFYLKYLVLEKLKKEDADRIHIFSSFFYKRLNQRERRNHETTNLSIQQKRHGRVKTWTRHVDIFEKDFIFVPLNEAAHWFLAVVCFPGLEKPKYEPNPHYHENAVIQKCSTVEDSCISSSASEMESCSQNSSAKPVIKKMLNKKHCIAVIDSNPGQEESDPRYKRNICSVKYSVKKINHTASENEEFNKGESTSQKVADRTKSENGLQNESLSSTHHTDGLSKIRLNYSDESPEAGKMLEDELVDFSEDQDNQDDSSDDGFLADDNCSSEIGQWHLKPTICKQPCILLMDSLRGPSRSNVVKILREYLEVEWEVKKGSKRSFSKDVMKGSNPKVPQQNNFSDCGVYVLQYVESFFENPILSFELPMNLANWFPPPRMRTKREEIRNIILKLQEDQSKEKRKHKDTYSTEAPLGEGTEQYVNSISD
# [15] = molecular target: T6, Sentrin-specific protease 7 (Homo sapiens, UniProt Q9BQF6); test: inhibition of human SENP7 cleavage activity – biochemical, luminescence, SAR follow-up (AID 504497); type: functional
# T6 sequence (Q9BQF6 whole entry): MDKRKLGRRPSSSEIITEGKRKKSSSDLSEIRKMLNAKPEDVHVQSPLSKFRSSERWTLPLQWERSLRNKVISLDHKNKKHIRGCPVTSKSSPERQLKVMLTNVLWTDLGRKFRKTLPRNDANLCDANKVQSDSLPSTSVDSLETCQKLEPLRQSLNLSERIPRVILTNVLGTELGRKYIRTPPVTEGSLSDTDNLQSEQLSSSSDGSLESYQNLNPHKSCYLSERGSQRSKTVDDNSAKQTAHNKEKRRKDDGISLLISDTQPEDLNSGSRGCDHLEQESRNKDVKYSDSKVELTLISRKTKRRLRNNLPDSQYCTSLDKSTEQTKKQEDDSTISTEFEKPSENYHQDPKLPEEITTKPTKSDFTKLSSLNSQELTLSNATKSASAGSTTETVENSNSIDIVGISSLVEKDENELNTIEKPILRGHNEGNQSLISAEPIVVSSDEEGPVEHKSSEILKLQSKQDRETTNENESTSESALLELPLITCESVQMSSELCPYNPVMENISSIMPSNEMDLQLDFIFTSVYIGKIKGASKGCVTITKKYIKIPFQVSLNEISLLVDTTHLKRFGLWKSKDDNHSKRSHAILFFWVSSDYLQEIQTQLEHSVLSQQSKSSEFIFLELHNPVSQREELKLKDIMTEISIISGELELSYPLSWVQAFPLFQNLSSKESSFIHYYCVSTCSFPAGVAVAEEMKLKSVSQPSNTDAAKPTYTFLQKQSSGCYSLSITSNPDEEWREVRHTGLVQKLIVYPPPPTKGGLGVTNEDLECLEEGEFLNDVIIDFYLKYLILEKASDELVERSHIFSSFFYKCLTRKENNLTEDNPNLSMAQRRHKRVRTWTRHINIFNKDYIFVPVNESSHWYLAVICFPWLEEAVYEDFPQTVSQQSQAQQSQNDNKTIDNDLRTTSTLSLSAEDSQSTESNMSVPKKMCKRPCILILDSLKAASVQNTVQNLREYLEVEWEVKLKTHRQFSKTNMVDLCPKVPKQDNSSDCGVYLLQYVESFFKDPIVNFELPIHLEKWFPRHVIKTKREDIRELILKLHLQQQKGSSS
# Caspase-3 [16] = molecular target: T4, Caspase-3; type: functional
# [17] = molecular target: T6, Sentrin-specific protease 7; type: functional
# [18] = molecular target: T5, Sentrin-specific protease 6; type: functional
# [19] = molecular target: T3, Sentrin-specific protease 8; type: functional
# Chain of Steroidogenic factor 1 (Q13285 whole entry): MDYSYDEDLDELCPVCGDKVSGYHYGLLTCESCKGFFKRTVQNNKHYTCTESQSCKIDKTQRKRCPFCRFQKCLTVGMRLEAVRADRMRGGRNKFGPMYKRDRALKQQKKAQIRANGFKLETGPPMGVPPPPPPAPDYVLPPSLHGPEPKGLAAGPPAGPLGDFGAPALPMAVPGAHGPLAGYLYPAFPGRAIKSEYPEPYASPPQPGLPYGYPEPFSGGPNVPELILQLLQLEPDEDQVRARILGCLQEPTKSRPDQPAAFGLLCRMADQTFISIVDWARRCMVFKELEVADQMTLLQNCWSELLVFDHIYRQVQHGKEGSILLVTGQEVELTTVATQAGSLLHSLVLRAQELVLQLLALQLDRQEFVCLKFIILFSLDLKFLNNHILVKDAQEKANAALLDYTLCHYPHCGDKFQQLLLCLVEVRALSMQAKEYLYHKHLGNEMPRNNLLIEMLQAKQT
# Chain of Nuclear receptor subfamily 5 group A member 2 (O00482 whole entry): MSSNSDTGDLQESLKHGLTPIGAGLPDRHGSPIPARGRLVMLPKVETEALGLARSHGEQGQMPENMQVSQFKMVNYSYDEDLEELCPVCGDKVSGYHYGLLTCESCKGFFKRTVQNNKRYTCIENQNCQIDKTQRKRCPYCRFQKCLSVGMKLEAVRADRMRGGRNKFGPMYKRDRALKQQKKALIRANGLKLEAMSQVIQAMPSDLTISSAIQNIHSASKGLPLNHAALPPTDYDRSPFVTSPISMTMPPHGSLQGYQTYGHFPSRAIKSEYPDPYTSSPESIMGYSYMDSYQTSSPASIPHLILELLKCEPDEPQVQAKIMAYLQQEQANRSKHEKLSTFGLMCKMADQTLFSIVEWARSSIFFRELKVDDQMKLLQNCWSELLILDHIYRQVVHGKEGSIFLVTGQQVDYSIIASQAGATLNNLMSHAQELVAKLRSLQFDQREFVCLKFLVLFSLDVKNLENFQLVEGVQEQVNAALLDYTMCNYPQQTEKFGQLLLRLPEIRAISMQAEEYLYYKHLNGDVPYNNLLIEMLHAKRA
# Chain of Estrogen receptor beta (Q92731 whole entry): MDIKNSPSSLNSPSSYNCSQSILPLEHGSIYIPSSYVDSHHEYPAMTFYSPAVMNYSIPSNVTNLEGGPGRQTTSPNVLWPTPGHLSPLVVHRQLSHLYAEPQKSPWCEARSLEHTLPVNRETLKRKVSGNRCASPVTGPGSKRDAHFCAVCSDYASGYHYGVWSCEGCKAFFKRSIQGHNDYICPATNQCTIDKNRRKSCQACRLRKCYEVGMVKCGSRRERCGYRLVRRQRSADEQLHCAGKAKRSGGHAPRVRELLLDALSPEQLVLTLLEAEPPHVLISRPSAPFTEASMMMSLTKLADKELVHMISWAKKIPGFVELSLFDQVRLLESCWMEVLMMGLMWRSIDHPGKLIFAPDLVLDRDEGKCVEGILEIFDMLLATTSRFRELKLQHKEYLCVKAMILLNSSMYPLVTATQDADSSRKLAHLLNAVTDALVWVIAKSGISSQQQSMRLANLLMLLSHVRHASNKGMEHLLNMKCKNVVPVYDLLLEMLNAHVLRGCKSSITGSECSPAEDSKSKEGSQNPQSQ
# Chain of Low molecular weight phosphotyrosine protein phosphatase (P24666 whole entry): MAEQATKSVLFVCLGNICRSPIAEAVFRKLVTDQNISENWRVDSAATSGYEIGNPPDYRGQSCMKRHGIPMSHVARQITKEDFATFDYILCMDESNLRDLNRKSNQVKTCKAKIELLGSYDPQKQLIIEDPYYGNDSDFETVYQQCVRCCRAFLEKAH
compound,measurement,setting,value
O=C(COc1ccc(S(=O)(=O)N2CCCC2)cc1Cl)Nc1ccc2c(c1)OCO2,IC50,[1],35.9 µM (inactive)
same,IC50,Steroidogenic factor 1,9.54 µM (active)
same,IC50,[2],35.9 µM (inactive)
COc1cc(C2Nc3cccc4cccc(c34)N2)cc(OC)c1O,IC50,Estrogen receptor beta,5.04 µM (not active)
same,EC50,Insulin-degrading enzyme [3],> 54.7 µM (inactive)
same,EC50,Insulin-degrading enzyme [4],> 54.7 µM (inactive)
same,IC50,HEK293 [5],> 89.2 µM (inactive)
same,EC50,HEK293 [6],> 55.9 µM (inactive)
same,IC50,Protein Tat,13.1 µM (inconclusive)
same,CC50,[7],2.1 µM (active)
COc1ccccc1CNc1nc(Nc2cccc(-c3cnco3)c2)c2sccc2n1,AC50,[8],5.61 µM (active)
same,AC50,[9],45.6 µM (active)
same,AC50,[10],9.22 µM (active)
same,IC50,[11],42.4 µM (inactive)
COc1ccc(NC(=O)COC(=O)Cc2c[nH]c3ccccc23)cc1Cl,IC50,[1],25.4 µM (inactive)
same,IC50,Steroidogenic factor 1,17.6 µM (inactive)
same,IC50,[2],35.9 µM (inactive)
O=C(NN=c1c(=O)c2ccccc2c1=O)c1ccncc1,IC50,[12],33.3 µM (active)
same,IC50,Caspase-3 [13],76.5 µM (active)
same,IC50,[14],9.3 µM (active)
same,IC50,[15],17.8 µM (active)
CC(=O)Nc1ccc(-c2nc3cc(Cl)ccc3o2)cc1,IC50,Caspase-3 [16],54.9 µM (active)
same,IC50,[17],2.77 µM (active)
same,IC50,[18],> 100 µM (inactive)
same,IC50,[19],> 100 µM (inactive)
same,IC50,[12],> 99 µM (inactive)
same,IC50,Caspase-3 [13],10.4 µM (active)
same,IC50,[14],> 99 µM (inactive)
same,IC50,[15],2.7 µM (active)
Cc1nc2ccccc2c(=O)n1-c1ccc(C(=O)O)cc1,EC50,Insulin-degrading enzyme [3],> 54.7 µM (inactive)
same,EC50,Insulin-degrading enzyme [4],> 54.7 µM (inactive)
same,IC50,HEK293 [5],> 89.2 µM (inactive)
same,EC50,HEK293 [6],> 55.9 µM (inactive)
